{"source": "patent US9051575B2", "about": "“Alga in which production of photosynthetic products is improved, and use for said alga” (Japan Science and Technology Agency, priority 2010, dated 2015)", "assay_type_in_all_cases": "cell-based, Chlamydomonas reinhardtii", "key": {"[1]": {"system": "GSH1 overexpressing strain", "assay": "Flow cytometry of particle densities in the culture (TAP medium, semi-heterotrophic)", "conditions": "addition of 8 mM BSO, 45 μE/m^2/sec, number of particles in 1 mL culture solution divided by the cube of 10", "experimental": "(§1) The GSH1 overexpressing strain produced in Example 1 was cultured under a semi-heterotrophic condition with the use of tris-acetate-phosphate (TAP) medium having pH7 (see Proc. Natl. Acad. Sci. USA, 54, 1665-1669.), and a growth capacity and a starch production capacity of the GSH1 overexpressing strain were evaluated. A CC503 strain (hereinafter referred to as “parent strain (wild-type strain)”) which is a wild-type Chlamydomonas strain was used as a control.\n(§2) Flow cytometry was carried out for more detailed analysis of the states of the GSH1 overexpressing strain of Sample 4 and the parent strain (wild-type strain) of Sample 8. Specifically, the cells of Samples 4 and 8 were irradiated with excitation light of 488 nm, and fluorescence intensity in the vicinity of 600 nm was measured. The fluorescence in the vicinity of 600 nm corresponds to chlorophyll fluorescence. Along with the chlorophyll fluorescence, fluorescent particles (produced by Beckman Coulter Inc., product name: Flow count) were used as an internal control for measuring a cell density. In this way, fluorescence in the range from 525 nm to 700 nm emitted by the excitation light of 488 nm was measured. Further, forward-scattered light and lateral-scattered light were measured so as to measure cell (particle) size and cell (particle) internal complexity.\n(§3) Note that the number of cells (particles) shown in Tables 3 and 4, which is expressed by a value obtained by dividing the number of particles contained in 1 mL of the culture solution by the cube of 10, was found on the basis of the value of the internal control."}, "[2]": {"system": "parent strain (wild-type strain) CC503", "assay": "Flow cytometry of particle densities in the culture (TAP medium, semi-heterotrophic)", "conditions": "addition of 8 mM BSO, 45 μE/m^2/sec, number of particles in 1 mL culture solution divided by the cube of 10", "experimental": "as §1, §2, §3"}, "[3]": {"system": "GSH1 overexpressing strain", "assay": "Starch production capacity / discharge of starch grains to outside of cells (clouding of culture solution, iodostarch reaction)", "conditions": "BSO added to TAP medium, final concentration 8 mM", "experimental": "as §1\nL-Buthionine-sulfoximine (abbreviated as BSO (produced by Sigma-Aldrich Corporation, Model No. B2515) added to TAP medium in Samples 2 and 6 is an inhibitor for GSH synthesis.\n(a) of FIG. 1 is a graph showing growth capacities of the respective GSH1 overexpressing strains, and (b) of FIG. 1 is a view showing states of respective culture solutions 309 hours after start of culturing. (a) of FIG. 2 is a graph showing growth capacities of respective parent strains (wild-type strains), and (b) of FIG. 2 is a view showing states of respective culture solutions 215 hours after start of culturing. […] The optical density represented by the vertical axis was measured by a device (manufactured by TAITEC CORPORATION, ODSensor-S/ODBox-A) for measuring an OD value on the basis of a transmission amount of infrared rays (950 nm). […]"}}, "note": "Entries after “also recorded” stand apart in the source; their conditions may differ."}
{"smiles": "CCCCS(=N)(=O)CCC(N)C(=O)O", "note": "[BSO, L-Buthionine-sulfoximine]", "values": [{"measurement": "density of particles which did not emit chlorophyll-derived fluorescence as a result of irradiation of excitation light (488 nm) (starch grains)", "setting": "[1]", "value": 602}, {"measurement": "density of particles which emitted chlorophyll-derived fluorescence as a result of irradiation of excitation light (488 nm)", "setting": "[1]", "value": "4,228"}, {"measurement": "density of particles which did not emit chlorophyll-derived fluorescence as a result of irradiation of excitation light (488 nm) (starch grains)", "setting": "[2]", "value": 27}, {"measurement": "density of particles which emitted chlorophyll-derived fluorescence as a result of irradiation of excitation light (488 nm)", "setting": "[2]", "value": "19,633"}, {"measurement": "discharge of starch to an outside of the cells", "setting": "[3]", "value": "starch was not discharged to an outside of the cells; also recorded: starch was not discharged into an outside of the cells"}]}
